For 24 compounds, IC50 results are on record in US20260207602A1, “EGFR INHIBITORS” (Blueprint Medicines Corporation, priority 2022, published 2026).

As usually defined, the pIC50 is the negative decadic logarithm of the IC50, by convention in mol/L.

In assay [1] the target is intracellular phosphorylation of EGFR (Tyr1068) in PC-9 cells (Homo sapiens, UniProt P00533, DEL746-750). The experiment in a line: PC-9 pEGFR AlphaLISA assay. The class given is cell-based. The conditions noted are these: 4 hours incubation, read-out: Phos EGFR PC9 IC50. The gist of the method:
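PC-9 cells (EGFR del746-750) in phenol-free DMEM/10% FBS, adhered overnight, then exposed to 10-point 4-fold compound dilutions for 4 h at 37 °C. Lysates assayed for pEGFR Tyr1068 by AlphaLISA SureFire Ultra; IC50 from percent pEGFR inhibition vs log concentration.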
A general note: In Alpha technology, singlet oxygen from a donor bead excites a nearby acceptor bead.

A further assay concerns the target T1, EGFR (d746-750) (Homo sapiens, UniProt P00533, DEL746-750).
T1 construct: purchased SignalChem E10-122JG
The experiment in a line: Biochemical EGFR inhibition assay (Caliper mobility shift), EGFR (d746-750). The settings on record: biochemical Caliper mobility shift assay, EGFR Exon 19-del enzyme; read-out: Enz EGFR Exon 19-del IC50. The gist of the method:
(§1)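 Kinase activity measured as phosphorylation of 2.5 µM 5-FAM-labelled peptide substrate in 100 mM HEPES pH 7.5, 10 mM MgCl2, 0.015% Brij-35, 1 mM DTT, 1.0% DMSO, at 1.0 mM ATP or ATP Km. Run at 25 °C to 10–20% conversion, stopped with EDTA; product resolved by mobility shift, apparent IC50 from percent activity vs log concentration.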

In the next assay the target is T2, EGFR L858R (Homo sapiens, UniProt P00533, L858R).
T2 construct: purchased SignalChem E10-122BG
T2 sequence (P00533 25-1210 L858R): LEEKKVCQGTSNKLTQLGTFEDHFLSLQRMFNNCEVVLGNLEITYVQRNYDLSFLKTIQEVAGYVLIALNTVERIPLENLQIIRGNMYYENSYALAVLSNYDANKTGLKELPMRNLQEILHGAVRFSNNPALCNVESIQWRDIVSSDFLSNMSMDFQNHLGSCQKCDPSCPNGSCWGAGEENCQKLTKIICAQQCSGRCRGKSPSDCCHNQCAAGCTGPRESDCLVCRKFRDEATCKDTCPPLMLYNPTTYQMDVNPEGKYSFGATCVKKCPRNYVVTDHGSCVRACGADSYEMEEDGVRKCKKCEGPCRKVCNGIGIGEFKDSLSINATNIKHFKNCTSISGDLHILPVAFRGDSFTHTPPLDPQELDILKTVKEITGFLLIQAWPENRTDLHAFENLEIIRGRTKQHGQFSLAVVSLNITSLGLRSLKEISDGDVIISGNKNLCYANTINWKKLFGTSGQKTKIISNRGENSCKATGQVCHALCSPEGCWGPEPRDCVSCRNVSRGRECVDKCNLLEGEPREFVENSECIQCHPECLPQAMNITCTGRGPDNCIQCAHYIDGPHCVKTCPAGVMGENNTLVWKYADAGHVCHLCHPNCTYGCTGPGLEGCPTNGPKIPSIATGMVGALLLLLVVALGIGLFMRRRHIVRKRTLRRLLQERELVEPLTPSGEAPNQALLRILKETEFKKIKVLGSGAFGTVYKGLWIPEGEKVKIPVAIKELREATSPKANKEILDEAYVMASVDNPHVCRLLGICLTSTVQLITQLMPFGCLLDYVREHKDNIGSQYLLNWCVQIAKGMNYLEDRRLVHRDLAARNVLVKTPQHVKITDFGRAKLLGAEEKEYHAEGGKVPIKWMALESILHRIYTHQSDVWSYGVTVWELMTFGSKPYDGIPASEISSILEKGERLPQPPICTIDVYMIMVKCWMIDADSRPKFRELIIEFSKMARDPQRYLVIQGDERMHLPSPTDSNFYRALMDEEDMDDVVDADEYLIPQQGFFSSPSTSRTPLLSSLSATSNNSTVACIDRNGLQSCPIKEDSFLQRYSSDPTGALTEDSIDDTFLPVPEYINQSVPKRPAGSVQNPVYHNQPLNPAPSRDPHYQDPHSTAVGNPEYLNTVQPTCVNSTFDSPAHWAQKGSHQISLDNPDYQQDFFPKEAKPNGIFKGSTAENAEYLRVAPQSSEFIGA
The experiment in a line: Biochemical EGFR inhibition assay (Caliper mobility shift), EGFR L858R. The conditions noted are these: biochemical Caliper mobility shift assay, EGFR L858R enzyme; read-out: Enz EGFR L858R IC50. The gist of the method: as §1

pIC50: −log10 of the molar value. Where only a bound is given, the exact number is not on record here.

T1 sequence (P00533 with tags, fused parts or gaps DEL746-750 limits assumed): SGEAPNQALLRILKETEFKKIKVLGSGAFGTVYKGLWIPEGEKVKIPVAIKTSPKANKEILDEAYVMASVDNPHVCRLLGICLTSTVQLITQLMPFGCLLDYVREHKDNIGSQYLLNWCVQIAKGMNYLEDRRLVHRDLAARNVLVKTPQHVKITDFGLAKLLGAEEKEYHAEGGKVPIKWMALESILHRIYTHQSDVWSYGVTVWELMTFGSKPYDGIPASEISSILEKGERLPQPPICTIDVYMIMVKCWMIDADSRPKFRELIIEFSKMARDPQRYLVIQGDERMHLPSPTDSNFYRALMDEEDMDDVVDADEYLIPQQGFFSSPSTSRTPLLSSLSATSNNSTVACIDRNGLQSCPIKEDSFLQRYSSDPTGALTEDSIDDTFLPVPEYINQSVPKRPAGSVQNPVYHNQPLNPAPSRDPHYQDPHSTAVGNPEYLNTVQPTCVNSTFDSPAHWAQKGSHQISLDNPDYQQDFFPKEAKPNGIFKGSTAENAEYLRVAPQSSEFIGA
intracellular phosphorylation of EGFR (Tyr1068) in PC-9 cells, sequence (P00533 with tags, fused parts or gaps DEL746-750): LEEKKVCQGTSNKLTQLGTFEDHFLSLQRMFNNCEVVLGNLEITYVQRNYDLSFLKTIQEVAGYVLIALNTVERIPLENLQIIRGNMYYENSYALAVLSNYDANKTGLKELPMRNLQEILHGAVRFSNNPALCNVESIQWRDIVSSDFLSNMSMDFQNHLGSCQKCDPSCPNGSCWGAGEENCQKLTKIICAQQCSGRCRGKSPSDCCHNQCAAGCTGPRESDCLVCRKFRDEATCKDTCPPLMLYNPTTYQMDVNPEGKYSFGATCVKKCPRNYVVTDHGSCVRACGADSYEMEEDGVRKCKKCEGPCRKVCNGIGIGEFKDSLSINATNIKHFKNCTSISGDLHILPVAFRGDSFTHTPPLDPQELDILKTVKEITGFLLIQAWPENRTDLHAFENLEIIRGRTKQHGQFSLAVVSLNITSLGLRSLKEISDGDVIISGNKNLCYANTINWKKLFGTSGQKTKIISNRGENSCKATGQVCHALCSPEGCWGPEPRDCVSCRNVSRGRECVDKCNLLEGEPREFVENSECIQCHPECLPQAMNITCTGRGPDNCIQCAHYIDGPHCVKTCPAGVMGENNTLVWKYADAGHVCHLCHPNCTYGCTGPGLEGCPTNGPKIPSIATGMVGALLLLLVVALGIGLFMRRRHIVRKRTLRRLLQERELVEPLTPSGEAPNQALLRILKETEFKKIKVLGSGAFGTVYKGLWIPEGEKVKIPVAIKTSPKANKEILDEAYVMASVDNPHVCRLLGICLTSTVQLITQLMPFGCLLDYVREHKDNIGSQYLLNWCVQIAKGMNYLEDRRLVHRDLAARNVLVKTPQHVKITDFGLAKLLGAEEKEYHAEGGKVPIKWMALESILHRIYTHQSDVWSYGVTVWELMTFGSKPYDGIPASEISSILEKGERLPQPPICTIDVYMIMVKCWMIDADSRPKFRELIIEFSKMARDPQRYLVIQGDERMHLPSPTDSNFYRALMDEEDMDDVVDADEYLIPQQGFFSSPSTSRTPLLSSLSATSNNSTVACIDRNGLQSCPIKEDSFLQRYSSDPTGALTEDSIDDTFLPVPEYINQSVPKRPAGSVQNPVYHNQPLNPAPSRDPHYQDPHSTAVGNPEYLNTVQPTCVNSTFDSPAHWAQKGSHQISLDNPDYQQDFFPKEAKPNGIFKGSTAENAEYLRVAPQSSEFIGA

`C[C@@H](Oc1cc(N2CC3CC(C2)O3)cc2ncnc(Nc3ccc4ncsc4c3F)c12)C1COC1` [Example 180, N-(7-(6-oxa-3-azabicyclo[3.1.1]heptan-3-yl)-5-((R)-1-(oxetan-3-yl)ethoxy)quinazolin-4-yl)-7-fluorobenzo[d]thiazol-6-amine]: the negative logarithm of the IC50 (pIC50) (in assay [1]; on EGFR (d746-750); at EGFR L858R) was at least 8.00 each time.
Turning to `Cn1cc(-c2cc(OCC(=O)N3CCC3)c3c(Nc4ccc5ncsc5c4)ncnc3c2)cn1` [Example 271, 1-(azetidin-1-yl)-2-((4-(benzo[d]thiazol-6-ylamino)-7-(1-methyl-1H-pyrazol-4-yl)quinazolin-5-yl)oxy)ethan-1-one], the negative-log IC50 (pIC50) in assay [1] is 7.30 to 8.00; at EGFR (d746-750), at least 8.00; at EGFR L858R, at least 8.00.
For `Cn1ccc(-c2cc3ncnc(Nc4ccc5ncsc5c4)c3cc2NC(=O)CCN2CCCCC2)n1` [Example A47, N-(4-(benzo[d]thiazol-6-ylamino)-7-(1-methyl-1H-pyrazol-3-yl)quinazolin-6-yl)-3-(piperidin-1-yl)propanamide], the pIC50 (in assay [1]; at EGFR (d746-750); on EGFR L858R) was at least 8.00 each time.
On to `CN1CCC(Oc2cc(-c3cnn(C(F)F)c3)cc3ncnc(Nc4ccc5ncsc5c4)c23)CC1` [Example 189, N-(7-(1-(difluoromethyl)-1H-pyrazol-4-yl)-5-((1-methylpiperidin-4-yl)oxy)quinazolin-4-yl)benzo[d]thiazol-6-amine], for which the results for the pIC50 (in assay [1]; on EGFR (d746-750); on EGFR L858R) were 7.30 to 8.00, at least 8.00 and 7.30 to 8.00, respectively.
In the case of `CN1CC[C@H](Oc2cc(-c3cnn(C)c3)cc3ncnc(Nc4ccc5ncsc5c4)c23)C[C@@H]1CO` [Example A08, [(2R,4S)-4-({4-[(1,3-benzothiazol-6-yl)amino]-7-(1-methyl-1H-pyrazol-4-yl)quinazolin-5-yl}oxy)-1-methylpiperidin-2-yl]methanol], the negative logarithm of the IC50 (pIC50) in assay [1] was 7.30 to 8.00; at EGFR (d746-750), at least 8.00; at EGFR L858R, at least 8.00.
As for `CCN1CC[C@H](Oc2cc(-c3cnn(C)c3)cc3ncnc(Nc4ccc5ncsc5c4)c23)C1=O` (single isomer, unassigned) [Example 60, (S)-3-((4-(benzo[d]thiazol-6-ylamino)-7-(1-methyl-1H-pyrazol-4-yl)quinazolin-5-yl)oxy)-1-ethylpyrrolidin-2-one or (R)-3-((4-(benzo[d]thiazol-6-ylamino)-7-(1-methyl-1H-pyrazol-4-yl)quinazolin-5-yl)oxy)-1-ethylpyrrolidin-2-one], the figures for the pIC50 (in assay [1]; at EGFR (d746-750); at EGFR L858R) were 7.30 to 8.00, at least 8.00 and at least 8.00, respectively.
For the compound `C[C@H]1COCC[C@@H]1Oc1cc(-c2cnn(C)c2)cc2ncnc(Nc3ccc4ncsc4c3)c12` (racemic) [Example 26, trans-racemic N-(7-(1-methyl-1H-pyrazol-4-yl)-5-(((3S,4S)-3-methyltetrahydro-2H-pyran-4-yl)oxy)quinazolin-4-yl)benzo[d]thiazol-6-amine], the pIC50 (in assay [1]; at EGFR (d746-750); at EGFR L858R) was at least 8.00 in each case.
Take `C[C@@H](Oc1cc(-c2cnn(C)c2)cc2ncnc(Nc3ccc4ncsc4c3F)c12)C1CCOCC1` (single isomer, unassigned) [Example 110]: the negative logarithm of the IC50 (pIC50) is 7.30 to 8.00 in assay [1], at least 8.00 at EGFR (d746-750) and at least 8.00 at EGFR L858R.
On to `C[C@H](Oc1cc(-c2cnn(C)c2)cc2ncnc(Nc3ccc4ncsc4c3)c12)C(F)(F)F` [Example 68, (S)-N-(7-(1-methyl-1H-pyrazol-4-yl)-5-((1,1,1-trifluoropropan-2-yl)oxy)quinazolin-4-yl)benzo[d]thiazol-6-amine], for which the negative-log IC50 (pIC50) (in assay [1]; on EGFR (d746-750); on EGFR L858R) was at least 8.00 each time.
On to `Cn1cc(-c2cc(OCC(=O)N3CC4(COC4)C3)c3c(Nc4ccc5ncsc5c4)ncnc3c2)cn1` [Example 270, 2-((4-(benzo[d]thiazol-6-ylamino)-7-(1-methyl-1H-pyrazol-4-yl)quinazolin-5-yl)oxy)-1-(2-oxa-6-azaspiro[3.3]heptan-6-yl)ethan-1-one], for which the negative-log IC50 (pIC50) in assay [1] is 7.30 to 8.00; at EGFR (d746-750) it was at least 8.00; on EGFR L858R it was at least 8.00.
Regarding `C[C@@H](Oc1cc(-c2cnn(C)c2)cc2ncnc(Nc3ccc4ncsc4c3F)c12)[C@H]1CCCO1` [Example 113, 7-fluoro-N-(7-(1-methyl-1H-pyrazol-4-yl)-5-((R)-1-((R)-tetrahydrofuran-2-yl)ethoxy)quinazolin-4-yl)benzo[d]thiazol-6-amine], the pIC50 (in assay [1]; at EGFR (d746-750); at EGFR L858R) was at least 8.00 in each case.
Regarding `CN1CC[C@@H](Nc2cc3c(Nc4ccc5ncsc5c4)ncnc3cc2-c2ccn(C)n2)[C@H](F)C1` (single isomer, unassigned) [Example 327], the negative logarithm of the IC50 (pIC50) (in assay [1]; on EGFR (d746-750); at EGFR L858R) was at least 8.00 each time.
As to `CN1CCC[C@H](Oc2cc(-c3cn(C)n(C(F)F)c3=O)cc3ncnc(Nc4ccc5ncsc5c4)c23)C1` [Example 249, (S)-4-(4-(benzo[d]thiazol-6-ylamino)-5-((1-methylpiperidin-3-yl)oxy)quinazolin-7-yl)-2-(difluoromethyl)-1-methyl-1,2-dihydro-3H-pyrazol-3-one], the results for the negative logarithm of the IC50 (pIC50) (in assay [1]; at EGFR (d746-750); on EGFR L858R) were 7.30 to 8.00, at least 8.00 and at least 8.00, respectively.
For the compound `CN1CC[C@@H](Oc2cc(-c3cnn(C)c3)cc3ncnc(Nc4ccc5ncsc5c4)c23)C1` [Example 35, (R)-N-(7-(1-methyl-1H-pyrazol-4-yl)-5-((1-methylpyrrolidin-3-yl)oxy)quinazolin-4-yl)benzo[d]thiazol-6-amine], the negative logarithm of the IC50 (pIC50) in assay [1] is 7.30 to 8.00; at EGFR (d746-750), at least 8.00; at EGFR L858R, 7.30 to 8.00.
Take `CO[C@@H]1CNCC[C@H]1Oc1cc(-c2cnn(C)c2)cc2ncnc(Nc3ccc4ncsc4c3)c12` (single isomer, unassigned) [Example A41]: the negative logarithm of the IC50 (pIC50) in assay [1] was 7.30 to 8.00; at EGFR (d746-750), at least 8.00; at EGFR L858R, at least 8.00.
Take `CN(C)CC1(COc2cc(-c3cnn(C)c3)cc3ncnc(Nc4ccc5ncsc5c4)c23)COC1` [Example 188, N-(5-((3-((dimethylamino)methyl)oxetan-3-yl)methoxy)-7-(1-methyl-1H-pyrazol-4-yl)quinazolin-4-yl)benzo[d]thiazol-6-amine]: the pIC50 in assay [1] was 7.30 to 8.00; at EGFR (d746-750) it was at least 8.00; at EGFR L858R it was 7.30 to 8.00.
`CN1CCC(Oc2cc(-c3cn(C)nc3OC(F)F)cc3ncnc(Nc4ccc5ncsc5c4)c23)CC1` [Example A18, N-(7-(3-(difluoromethoxy)-1-methyl-1H-pyrazol-4-yl)-5-((1-methylpiperidin-4-yl)oxy)quinazolin-4-yl)benzo[d]thiazol-6-amine]: the pIC50 in assay [1] was 7.30 to 8.00; on EGFR (d746-750), at least 8.00; at EGFR L858R, 7.30 to 8.00.
For `CC(Oc1cc(-c2cnn(C)c2)cc2ncnc(Nc3ccc4ncsc4c3F)c12)C(=O)N(C)C` (stereo not drawn) [Example 278, 2-((4-((7-fluorobenzo[d]thiazol-6-yl)amino)-7-(1-methyl-1H-pyrazol-4-yl)quinazolin-5-yl)oxy)-N,N-dimethylpropanamide], the negative logarithm of the IC50 (pIC50) (in assay [1]; on EGFR (d746-750); on EGFR L858R) was at least 8.00 each time.
Regarding `COc1nn(C)cc1-c1cc(O[C@@H]2CCN(C)C[C@H]2F)c2c(Nc3ccc4ncsc4c3)ncnc2c1` (single isomer, unassigned) [Example 359], the pIC50 in assay [1] is 7.30 to 8.00; on EGFR (d746-750) it was at least 8.00; on EGFR L858R, at least 8.00.
Turning to `CN1CCN(CCOc2cc(OC3CCOCC3)c3c(Nc4ccc5ncsc5c4)ncnc3c2)CC1` [Example A16, N-(7-(2-(4-methylpiperazin-1-yl)ethoxy)-5-((tetrahydro-2H-pyran-4-yl)oxy)quinazolin-4-yl)benzo[d]thiazol-6-amine], the negative-log IC50 (pIC50) is 7.30 to 8.00 in assay [1], at least 8.00 on EGFR (d746-750) and 7.30 to 8.00 on EGFR L858R.
In the case of `C[C@@H](Oc1cc(-c2cnn(C)c2)cc2ncnc(Nc3ccc4ncsc4c3)c12)[C@H](C)N(C)C` (single isomer, unassigned) [Example 145], the pIC50 (in assay [1]; on EGFR (d746-750); at EGFR L858R) was at least 8.00 throughout.
For `COc1nn(C)cc1-c1cc(O[C@H]2CCN(C)C[C@H]2F)c2c(Nc3ccc4ncsc4c3)ncnc2c1` [Example 364, N-(5-(((3R,4S)-3-fluoro-1-methylpiperidin-4-yl)oxy)-7-(3-methoxy-1-methyl-1H-pyrazol-4-yl)quinazolin-4-yl)benzo[d]thiazol-6-amine], the pIC50 (in assay [1]; at EGFR (d746-750); at EGFR L858R) was at least 8.00 throughout.
Turning to `CC(C)Oc1cc(O[C@H](C)C2COC2)c2c(Nc3ccc4ncsc4c3)ncnc2c1` [Example 125, (R)-N-(7-isopropoxy-5-(1-(oxetan-3-yl)ethoxy)quinazolin-4-yl)benzo[d]thiazol-6-amine], the pIC50 was 7.30 to 8.00 in assay [1], at least 8.00 at EGFR (d746-750) and at least 8.00 at EGFR L858R.
As for `COc1cc(O[C@H](C)C2COC2)c2c(Nc3ccc4ncsc4c3F)ncnc2c1` (single isomer, unassigned) [Example 83], the pIC50 (in assay [1]; at EGFR (d746-750); at EGFR L858R) was at least 8.00 each time.
